Earlier results on 1 molecule are cited in patent US6265392A, “Low oxygen content compositions of 1α, 25-dihydroxycholeclciferol” (Abbott Laboratories, priority 2000, dated 2001).

For data set [1] the following is noted: free molecules and other reactive forms of oxygen; in solution.
Data set [2] relates to intestinal absorption of calcium and phosphorous. Particulars: in vivo.
Data set [3] concerns renal osteodystrophy, hypoparathyroidism, osteomalacia, osteoporosis, hepatic osteodystrophy, vitamin D-resistant rickets, vitamin D-dependent rickets …. Particulars: children and adults; literature.

For `C=C1/C(=C\C=C2/CCC[C@]3(C)[C@@H]([C@H](C)CCCC(C)(C)O)CC[C@@H]23)C[C@@H](O)C[C@@H]1O` [1α,25-dihydroxycholecalciferol], the “Solubility in organic solvents” value (organic solvents) is “soluble in organic solvents”. In addition, the Solubility in water result (water) is “practically insoluble in water”. Moreover, the Sensitivity to oxygen result in data set [1] was “sensitive to the presence of oxygen”. Moreover, the “Effect on intestinal absorption of calcium and phosphorous” value in data set [2] was “stimulates intestinal absorption of calcium and phosphorous”. In data set [3], the Treatment outcome is “successful treatment”.
